What all share (experiment): Kinase Profiler, residual kinase activity
What all share (format): biochemical

One experiment deals with T1, AXL (Homo sapiens, UniProt P30530).
T1 construct: purchased Research Biology Corp. (http://www.reactionbiology.com)
T1 sequence (P30530 26-894): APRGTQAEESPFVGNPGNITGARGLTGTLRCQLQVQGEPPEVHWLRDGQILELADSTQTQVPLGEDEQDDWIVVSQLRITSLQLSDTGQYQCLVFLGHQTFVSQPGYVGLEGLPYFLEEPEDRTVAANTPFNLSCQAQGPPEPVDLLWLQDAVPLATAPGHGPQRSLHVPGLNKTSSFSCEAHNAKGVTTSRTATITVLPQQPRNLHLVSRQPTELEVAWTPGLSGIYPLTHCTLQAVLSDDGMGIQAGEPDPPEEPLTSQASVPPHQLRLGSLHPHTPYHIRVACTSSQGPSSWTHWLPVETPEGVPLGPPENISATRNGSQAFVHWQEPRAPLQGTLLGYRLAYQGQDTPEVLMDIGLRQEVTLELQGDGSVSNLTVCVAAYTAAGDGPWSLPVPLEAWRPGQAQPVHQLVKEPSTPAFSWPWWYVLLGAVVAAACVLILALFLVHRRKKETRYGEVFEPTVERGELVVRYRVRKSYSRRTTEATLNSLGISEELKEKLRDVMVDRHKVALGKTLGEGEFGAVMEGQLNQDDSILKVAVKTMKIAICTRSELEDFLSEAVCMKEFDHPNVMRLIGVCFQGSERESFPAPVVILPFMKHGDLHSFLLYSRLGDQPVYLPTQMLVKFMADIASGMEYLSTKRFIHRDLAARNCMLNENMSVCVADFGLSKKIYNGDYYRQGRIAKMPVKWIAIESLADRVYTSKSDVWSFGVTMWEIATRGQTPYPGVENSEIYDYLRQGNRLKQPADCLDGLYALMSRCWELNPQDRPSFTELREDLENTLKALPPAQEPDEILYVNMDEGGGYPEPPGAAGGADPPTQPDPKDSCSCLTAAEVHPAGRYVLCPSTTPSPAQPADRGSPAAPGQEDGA
The note with it: AXL; inhibitor at 500 nM; read-out: percentage of the remaining kinase activity. The source says: (§1) Kinase Profiler services provided by […]. (http://www.reactionbiology.com) were used to analyze the data of the 9 type-S protein kinase inhibitors against the 40 types of protein kinases.

In a further experiment the target is DYRK1A (Homo sapiens, UniProt Q13627). The note with it: DYRK1A; inhibitor at 500 nM; read-out: percentage of the remaining kinase activity.
Description: as §1

The target of the next experiment is T2, INSR (Homo sapiens, UniProt P06213).
T2 construct: purchased Research Biology Corp. (http://www.reactionbiology.com)
T2 sequence (P06213 28-1382): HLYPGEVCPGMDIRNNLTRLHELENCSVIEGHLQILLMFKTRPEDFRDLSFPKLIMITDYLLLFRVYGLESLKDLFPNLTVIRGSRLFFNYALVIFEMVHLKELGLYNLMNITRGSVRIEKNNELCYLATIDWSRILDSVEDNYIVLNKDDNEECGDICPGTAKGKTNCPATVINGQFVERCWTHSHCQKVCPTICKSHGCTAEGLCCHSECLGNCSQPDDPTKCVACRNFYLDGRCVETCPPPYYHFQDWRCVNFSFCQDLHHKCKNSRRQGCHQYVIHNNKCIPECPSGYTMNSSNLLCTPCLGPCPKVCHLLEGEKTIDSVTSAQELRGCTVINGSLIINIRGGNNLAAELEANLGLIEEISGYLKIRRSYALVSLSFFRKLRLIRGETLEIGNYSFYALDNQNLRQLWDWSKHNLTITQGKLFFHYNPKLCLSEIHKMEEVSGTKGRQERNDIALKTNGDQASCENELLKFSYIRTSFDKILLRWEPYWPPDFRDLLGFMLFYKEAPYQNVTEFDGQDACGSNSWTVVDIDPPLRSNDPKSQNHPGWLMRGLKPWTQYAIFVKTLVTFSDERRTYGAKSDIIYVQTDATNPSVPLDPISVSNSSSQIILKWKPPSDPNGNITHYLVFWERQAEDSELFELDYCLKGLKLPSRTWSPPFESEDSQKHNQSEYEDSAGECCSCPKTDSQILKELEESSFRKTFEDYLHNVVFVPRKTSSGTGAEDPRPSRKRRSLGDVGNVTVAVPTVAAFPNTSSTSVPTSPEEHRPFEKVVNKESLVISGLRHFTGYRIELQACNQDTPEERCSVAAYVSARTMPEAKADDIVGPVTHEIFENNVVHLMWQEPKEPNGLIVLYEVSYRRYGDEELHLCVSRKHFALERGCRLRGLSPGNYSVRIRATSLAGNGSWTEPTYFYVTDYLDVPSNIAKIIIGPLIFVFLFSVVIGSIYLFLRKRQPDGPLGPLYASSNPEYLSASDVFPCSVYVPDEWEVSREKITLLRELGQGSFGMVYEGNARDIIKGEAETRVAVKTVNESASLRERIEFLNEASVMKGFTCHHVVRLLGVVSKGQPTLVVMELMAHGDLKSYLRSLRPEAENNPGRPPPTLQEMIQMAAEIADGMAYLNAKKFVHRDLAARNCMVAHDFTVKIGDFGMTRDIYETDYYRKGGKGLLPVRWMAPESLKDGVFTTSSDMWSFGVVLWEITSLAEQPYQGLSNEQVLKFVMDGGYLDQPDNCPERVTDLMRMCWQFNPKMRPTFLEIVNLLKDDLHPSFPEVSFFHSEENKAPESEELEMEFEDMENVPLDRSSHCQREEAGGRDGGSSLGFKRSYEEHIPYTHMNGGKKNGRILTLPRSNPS
The note with it: INSR; inhibitor at 500 nM; read-out: percentage of the remaining kinase activity.
Description: as §1

The target in another experiment is T3, IRAK4 (Homo sapiens, UniProt Q9NWZ3).
T3 sequence (Q9NWZ3 1-460): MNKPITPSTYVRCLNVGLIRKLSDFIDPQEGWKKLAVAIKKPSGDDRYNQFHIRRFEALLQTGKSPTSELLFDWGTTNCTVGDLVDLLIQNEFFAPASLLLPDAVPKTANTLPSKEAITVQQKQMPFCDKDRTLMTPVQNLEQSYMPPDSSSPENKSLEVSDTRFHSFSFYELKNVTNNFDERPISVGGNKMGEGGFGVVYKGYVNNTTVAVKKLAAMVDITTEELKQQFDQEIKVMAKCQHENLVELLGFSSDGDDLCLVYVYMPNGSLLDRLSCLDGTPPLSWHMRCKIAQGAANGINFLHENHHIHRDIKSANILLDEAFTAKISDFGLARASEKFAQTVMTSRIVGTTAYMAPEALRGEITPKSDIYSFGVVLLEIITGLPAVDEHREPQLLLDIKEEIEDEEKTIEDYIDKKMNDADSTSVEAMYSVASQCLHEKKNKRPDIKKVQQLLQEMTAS
Conditions: IRAK4; inhibitor at 500 nM; read-out: percentage of the remaining kinase activity.
Description: as §1

The target in a further experiment is T4, GSG2 (Homo sapiens, UniProt Q8TF76).
T4 sequence (Q8TF76 1-798): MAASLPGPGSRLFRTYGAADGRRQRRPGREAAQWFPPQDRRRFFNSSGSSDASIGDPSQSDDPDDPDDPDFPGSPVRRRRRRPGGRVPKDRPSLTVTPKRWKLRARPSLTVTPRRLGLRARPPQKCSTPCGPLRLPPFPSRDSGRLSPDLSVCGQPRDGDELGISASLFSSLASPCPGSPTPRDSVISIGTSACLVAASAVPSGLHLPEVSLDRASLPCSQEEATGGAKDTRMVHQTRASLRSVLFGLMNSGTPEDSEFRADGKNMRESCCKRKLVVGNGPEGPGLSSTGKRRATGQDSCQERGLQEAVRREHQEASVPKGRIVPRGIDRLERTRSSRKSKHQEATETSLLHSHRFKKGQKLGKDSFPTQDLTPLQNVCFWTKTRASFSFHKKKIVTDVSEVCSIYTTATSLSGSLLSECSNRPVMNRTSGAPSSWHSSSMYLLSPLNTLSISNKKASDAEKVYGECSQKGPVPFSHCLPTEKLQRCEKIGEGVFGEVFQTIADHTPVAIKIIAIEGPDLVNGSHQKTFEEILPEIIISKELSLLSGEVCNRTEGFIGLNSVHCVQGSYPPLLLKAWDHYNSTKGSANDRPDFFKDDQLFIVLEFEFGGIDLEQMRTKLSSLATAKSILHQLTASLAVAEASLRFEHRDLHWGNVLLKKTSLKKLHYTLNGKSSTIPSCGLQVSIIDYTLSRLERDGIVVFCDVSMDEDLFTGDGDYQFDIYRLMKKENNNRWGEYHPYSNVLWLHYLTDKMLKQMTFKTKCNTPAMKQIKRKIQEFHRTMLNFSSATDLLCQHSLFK
The note with it: GSG2; inhibitor at 500 nM; read-out: percentage of the remaining kinase activity.
Description: as §1

A further experiment has as its target T5, OXSR1 (Homo sapiens, UniProt O95747).
T5 construct: purchased Research Biology Corp. (http://www.reactionbiology.com)
Conditions: OXSR1; inhibitor at 500 nM; read-out: percentage of the remaining kinase activity.
Description: as §1

For a further experiment, the target named is AKT1 (Homo sapiens, UniProt P31749). Conditions: AKT1; inhibitor at 500 nM; read-out: percentage of the remaining kinase activity.
AKT1, sequence (P31749 whole entry): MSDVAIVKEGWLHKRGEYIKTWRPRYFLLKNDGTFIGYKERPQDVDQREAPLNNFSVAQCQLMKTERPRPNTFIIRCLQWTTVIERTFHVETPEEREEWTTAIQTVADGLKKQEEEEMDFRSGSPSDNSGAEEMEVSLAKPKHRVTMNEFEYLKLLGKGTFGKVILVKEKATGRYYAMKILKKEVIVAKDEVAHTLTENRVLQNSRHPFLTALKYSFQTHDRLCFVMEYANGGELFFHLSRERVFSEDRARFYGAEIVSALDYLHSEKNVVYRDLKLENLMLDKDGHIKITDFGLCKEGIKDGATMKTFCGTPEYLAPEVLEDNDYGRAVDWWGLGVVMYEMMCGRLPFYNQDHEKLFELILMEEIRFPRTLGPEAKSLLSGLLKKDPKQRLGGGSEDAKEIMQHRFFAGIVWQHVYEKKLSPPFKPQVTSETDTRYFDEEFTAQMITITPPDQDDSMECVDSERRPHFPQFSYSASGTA
Description: as §1

The target in another experiment is T6, FGFR2 (Homo sapiens, UniProt P21802).
T6 construct: purchased Research Biology Corp. (http://www.reactionbiology.com)
T6 sequence (P21802 22-821): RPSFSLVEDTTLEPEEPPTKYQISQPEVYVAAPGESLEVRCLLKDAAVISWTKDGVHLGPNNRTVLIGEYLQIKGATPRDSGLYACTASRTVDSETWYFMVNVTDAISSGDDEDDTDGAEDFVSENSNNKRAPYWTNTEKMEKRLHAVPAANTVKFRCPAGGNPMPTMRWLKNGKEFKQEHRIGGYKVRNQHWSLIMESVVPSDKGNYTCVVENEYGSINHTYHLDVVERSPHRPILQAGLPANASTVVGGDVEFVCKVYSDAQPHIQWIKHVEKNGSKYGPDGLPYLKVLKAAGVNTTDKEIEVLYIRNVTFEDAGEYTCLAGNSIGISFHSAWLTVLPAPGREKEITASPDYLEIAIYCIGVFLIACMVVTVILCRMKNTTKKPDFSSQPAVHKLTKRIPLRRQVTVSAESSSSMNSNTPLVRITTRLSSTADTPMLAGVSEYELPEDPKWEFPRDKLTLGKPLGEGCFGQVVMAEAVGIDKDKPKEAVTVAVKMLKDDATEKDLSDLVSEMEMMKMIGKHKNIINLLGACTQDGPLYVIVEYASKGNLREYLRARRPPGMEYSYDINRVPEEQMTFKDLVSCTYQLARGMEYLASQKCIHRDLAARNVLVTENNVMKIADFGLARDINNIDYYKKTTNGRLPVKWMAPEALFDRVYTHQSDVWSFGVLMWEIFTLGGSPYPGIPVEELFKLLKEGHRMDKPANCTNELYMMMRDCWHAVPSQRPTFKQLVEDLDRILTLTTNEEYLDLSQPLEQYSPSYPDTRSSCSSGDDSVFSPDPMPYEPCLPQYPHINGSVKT
The note with it: FGFR2; inhibitor at 500 nM; read-out: percentage of the remaining kinase activity.
Description: as §1

The target of another experiment is KDR (Homo sapiens, UniProt P35968). The note with it: KDR; inhibitor at 500 nM; read-out: percentage of the remaining kinase activity.
KDR, sequence (P35968 20-1356): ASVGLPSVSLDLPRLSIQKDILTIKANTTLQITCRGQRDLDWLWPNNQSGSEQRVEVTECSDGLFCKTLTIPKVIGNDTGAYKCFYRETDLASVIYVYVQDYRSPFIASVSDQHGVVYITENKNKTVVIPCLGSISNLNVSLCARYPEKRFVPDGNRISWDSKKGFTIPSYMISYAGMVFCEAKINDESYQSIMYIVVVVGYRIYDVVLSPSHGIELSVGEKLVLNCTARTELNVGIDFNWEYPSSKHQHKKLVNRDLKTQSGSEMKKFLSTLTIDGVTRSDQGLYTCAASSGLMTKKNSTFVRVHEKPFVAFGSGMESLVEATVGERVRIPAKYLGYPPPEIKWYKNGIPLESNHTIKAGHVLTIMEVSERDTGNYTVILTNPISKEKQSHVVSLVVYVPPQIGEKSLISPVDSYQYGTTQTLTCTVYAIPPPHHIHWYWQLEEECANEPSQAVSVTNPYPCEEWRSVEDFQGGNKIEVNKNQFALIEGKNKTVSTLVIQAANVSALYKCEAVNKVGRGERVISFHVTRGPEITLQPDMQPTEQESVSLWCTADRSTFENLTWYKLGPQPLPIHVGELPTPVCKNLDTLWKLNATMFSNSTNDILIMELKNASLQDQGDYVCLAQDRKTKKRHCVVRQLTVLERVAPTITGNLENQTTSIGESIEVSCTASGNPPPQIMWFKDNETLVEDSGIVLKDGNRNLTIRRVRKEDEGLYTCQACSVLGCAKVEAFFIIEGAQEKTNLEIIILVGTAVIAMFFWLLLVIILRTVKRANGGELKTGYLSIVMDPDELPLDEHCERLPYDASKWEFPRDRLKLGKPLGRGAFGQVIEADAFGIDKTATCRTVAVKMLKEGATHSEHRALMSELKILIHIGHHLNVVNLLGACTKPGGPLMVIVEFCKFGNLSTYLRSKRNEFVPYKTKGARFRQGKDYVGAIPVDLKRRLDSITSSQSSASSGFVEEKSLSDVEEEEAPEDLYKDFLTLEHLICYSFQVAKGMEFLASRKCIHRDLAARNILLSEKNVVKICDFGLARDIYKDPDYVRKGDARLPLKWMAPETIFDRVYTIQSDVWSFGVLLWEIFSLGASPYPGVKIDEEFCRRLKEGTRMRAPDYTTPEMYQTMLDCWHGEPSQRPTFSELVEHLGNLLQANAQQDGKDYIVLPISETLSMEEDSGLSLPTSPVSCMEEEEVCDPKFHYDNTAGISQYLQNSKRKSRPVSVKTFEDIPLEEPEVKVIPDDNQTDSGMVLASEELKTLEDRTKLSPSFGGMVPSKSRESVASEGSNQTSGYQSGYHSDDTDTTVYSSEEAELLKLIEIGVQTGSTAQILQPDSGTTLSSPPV
Description: as §1

A further experiment has as its target JAK2 (Homo sapiens, UniProt O60674). Conditions: JAK2; inhibitor at 500 nM; read-out: percentage of the remaining kinase activity.
Description: as §1

The structures appear in SMILES notation.

The remaining activity is the signal under treatment as a percentage of the control signal.

T5 sequence (O95747 whole entry): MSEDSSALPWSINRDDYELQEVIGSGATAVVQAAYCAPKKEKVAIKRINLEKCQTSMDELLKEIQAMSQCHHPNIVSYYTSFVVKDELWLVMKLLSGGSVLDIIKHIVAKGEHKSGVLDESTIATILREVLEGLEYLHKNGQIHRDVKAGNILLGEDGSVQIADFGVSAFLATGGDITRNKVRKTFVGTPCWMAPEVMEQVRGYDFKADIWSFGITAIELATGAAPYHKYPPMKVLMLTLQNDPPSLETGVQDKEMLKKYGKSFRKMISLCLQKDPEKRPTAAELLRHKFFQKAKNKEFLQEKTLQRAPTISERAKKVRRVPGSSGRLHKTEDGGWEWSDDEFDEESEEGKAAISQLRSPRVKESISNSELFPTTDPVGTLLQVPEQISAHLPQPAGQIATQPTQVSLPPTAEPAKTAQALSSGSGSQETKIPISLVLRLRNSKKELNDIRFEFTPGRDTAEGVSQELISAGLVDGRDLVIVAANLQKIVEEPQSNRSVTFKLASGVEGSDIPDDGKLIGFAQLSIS

On to `COC1C(N(C)Cc2ccc(-c3ccccc3)cc2)CC2OC1(C)n1c3ccccc3c3c4c(c5c6ccccc6n2c5c31)C(=O)NC4` (stereo not shown) [Compound 9], for which the remaining activity at 0.5 µM at AXL came to 37.6%; on DYRK1A, 18.5%; on INSR it was 79.1%; at IRAK4 it was 26.6%; at GSG2, 87.8%; on OXSR1, 94.7%. In addition, the remaining activity at 0.5 µM at AKT1 was found to be 46.9%; at FGFR2, 26.5%; on KDR it was 43.6%; on JAK2, 4.4%.

Values taken from US9738660B2, “Selective inhibitors for protein kinases and pharmaceutical composition and use thereof” (National Chiao Tung University, priority 2014, dated 2017).
